Measured values from ChEMBL document CHEMBL4270640, “Discovery of new 2, 5-disubstituted 1,3-selenazoles as selective human carbonic anhydrase IX inhibitors with potent anti-tumor activity” (Eur J Med Chem, 2018).
Calls of active or inactive are those of the source. The calls are words filed in the database; no cut-off is given here.

Experiments:
Carbonic anhydrase 9 = Carbonic anhydrase 9 (Homo sapiens, UniProt Q16790); test: Inhibition of recombinant human carbonic anhydrase 9 incubated for 15 mins prior to testing by stopped flow CO2 hydration assay
PC-3 [1] = test: Antiproliferative activity against human PC3 cells assessed as cell viability at 1 uM after 48 hrs under normoxic condition by MTT assay relative to control; format: functional; settings: for viability at 1 µM: PC-3, 48 h, read-out: Activity
MDA-MB-231 [2] = test: Antiproliferative activity against human MDA-MB-231 cells assessed as cell viability at 1 uM after 48 hrs under normoxic condition by MTT assay relative to control; format: functional; settings: for viability at 1 µM: MDA-MB-231, 48 h, read-out: Activity
PC-3 [3] = test: Antiproliferative activity against human PC3 cells assessed as cell viability at 10 uM after 48 hrs under normoxic condition by MTT assay relative to control; format: functional
PC-3 [4] = test: Antiproliferative activity against human PC3 cells assessed as cell viability at 1 uM after 48 hrs under hypoxic condition by MTT assay relative to control; format: functional; settings: PC-3, 48 h, read-out: Activity
MDA-MB-231 [5] = test: Antiproliferative activity against human MDA-MB-231 cells assessed as cell killing at 10 uM after 48 hrs under normoxic condition by MTT assay relative to control; format: functional
PC-3 [6] = test: Antiproliferative activity against human PC3 cells assessed as cell viability at 100 uM after 48 hrs under normoxic condition by MTT assay relative to control; format: functional; settings: PC-3, 48 h, read-out: Activity
PC-3 [7] = test: Antiproliferative activity against human PC3 cells at 10 uM after 48 hrs under hypoxic condition by MTT assay relative to control; format: functional
MDA-MB-231 [8] = test: Antiproliferative activity against human MDA-MB-231 cells assessed as cell viability at 100 uM after 48 hrs under hypoxic condition by MTT assay relative to control; format: functional; settings: MDA-MB-231, 48 h, read-out: Activity
MDA-MB-231 [9] = test: Antiproliferative activity against human MDA-MB-231 cells assessed as cell killing at 30 to 100 uM after 48 hrs under normoxic condition by MTT assay; format: functional, cell-based
PC-3 [10] = test: Antiproliferative activity against human PC3 cells assessed as cell viability at 30 uM after 48 hrs under normoxic condition by MTT assay relative to control; format: functional; settings: PC-3, 48 h, read-out: Activity

Structure (SMILES) | Ki (Carbonic anhydrase 9) [nM] | also measured
NC(=[Se])c1ccc(S(N)(=O)=O)cc1 | 7.6 | 
Cc1ccc([Te]Cc2cnc(-c3ccc(S(N)(=O)=O)cc3)[se]2)cc1 | 2.6 | 
NS(=O)(=O)c1ccc(-c2ncc(C(=O)O)[se]2)cc1 | 9 | 
N=C(N)SCc1cnc(-c2ccc(S(N)(=O)=O)cc2)[se]1 | 7 | 
NS(=O)(=O)c1ccc(-c2ncc(-c3ccc(Br)cc3)[se]2)cc1 | 0.87 | 
Cc1cnc(-c2ccc(S(N)(=O)=O)cc2)[se]1 | 6.9 | 
NS(=O)(=O)c1ccc(-c2ncc(-c3ccc(F)cc3)[se]2)cc1 | 7.5 | 
COc1ccc([Te]Cc2cnc(-c3ccc(S(N)(=O)=O)cc3)[se]2)cc1 | 0.89 | viability at 1 µM (PC-3 [1]): 23%; viability at 1 µM (MDA-MB-231 [2]): 16%
NS(=O)(=O)c1ccc(-c2ncc(C[Se]c3ccccc3)[se]2)cc1 | 9.1 | 
NS(=O)(=O)c1ccc(-c2ncc(CCl)[se]2)cc1 | 2.8 | 
NS(=O)(=O)c1ccc(-c2ncc(-c3ccccc3)[se]2)cc1 | 6.5 | 
NS(=O)(=O)c1ccc(-c2ncc(-c3ccc([N+](=O)[O-])cc3)[se]2)cc1 | 8.2 | viability at 10 µM (PC-3 [3]; PC-3, 48 h, read-out: Activity): 10%; viability at 1 µM (PC-3 [4]): 32%; viability at 1 µM (PC-3 [1]): 60%; viability at 1 µM (MDA-MB-231 [2]): 73%; Activity (MDA-MB-231 [5]): >90%
Cc1ccc([Se]Cc2cnc(-c3ccc(S(N)(=O)=O)cc3)[se]2)cc1 | 7.1 | 
COc1ccc([Se]Cc2cnc(-c3ccc(S(N)(=O)=O)cc3)[se]2)cc1 | 0.55 | viability at 100 µM (PC-3 [6]): 11%; Activity (PC-3 [7]): 77%; Activity (PC-3 [3]): inactive; viability at 100 µM (MDA-MB-231 [8]): 46%; Activity (MDA-MB-231 [9]): Active; viability at 30 µM (PC-3 [10]): 59%; Activity (PC-3 [1]): inactive; Activity (MDA-MB-231 [2]): inactive; Activity (MDA-MB-231 [5]): inactive
NS(=O)(=O)c1ccc(-c2ncc(-c3ccc(Cl)cc3)[se]2)cc1 | 8.4 | 
NS(=O)(=O)c1ccc(-c2ncc(CSc3ccccc3)[se]2)cc1 | 5.4 | 
COc1cccc(-c2cnc(-c3ccc(S(N)(=O)=O)cc3)[se]2)c1 | 56.3 | 
NS(=O)(=O)c1ccc(-c2ncc(C[Te]c3ccccc3)[se]2)cc1 | 7.2 | 
